How the values were obtained:
[1] = tested on: AMPKα1 and AMPKα2 mRNA; assay: AMPK mRNA analysis in Beas2b cells; format: cell-based, Human; conditions: glucose-free media, 18 h
Protocol: FIG. 4. (A) Beas2b cells were cultured in DMEM 2% media with glucose for 24 h before switching to glucose-free media. Cells were then exposed to Compound 12 in a dose dependent manner for 18 h before being collected for immunoblotting. (B) Beas2b cells were cultured in DMEM 2% media with glucose for 24 h before Compound 12 treatment in a dose dependent manner. After 18 h, cells were then collected for immunoblotting. (C) Beas2b cells were cultured in DMEM 2% media with glucose for 24 h before switching to glucose-free media. Cells were then exposed to Compound 12 for 18 h before being collected for mRNA analysis. (D) 50K PBMC cells were cultured in 96 well plates before being exposed to Compound 12 for 4 h. Cells were then treated with LPS (10 ng/ml) for additional 2 h. Media were then collected and IL-1b concentration was determined by ELISA.
A SAR study was performed by constructing analogs of Compound 1. […] Compound 12 was further tested in PBMCs. Briefly, PBMCs were treated with Compound 12 at various concentrations for 4 h before exposure to LPS (10 ng/ml) for 2 h.

[2] = tested on: Diet-induced obese mice; assay: Diet-induced obese mice study, 14 days dosing; format: in vivo; conditions: once daily for 14 days; BC1618 8 or 40 mg/kg/d
Protocol: FIG. 12. Diet-induced obese mice were fed a high-fat diet for 19 weeks and then injected with vehicle or drug once daily for 14 days. Daily body weights (in grams) of the mice are shown.
Diet-induced obese mice arrived from Jackson Labs and recovered two weeks in satellite housing before study. Mice were 25 weeks old and fed a high-fat diet for 19 weeks at the time of study. Body weight, fat and lean mass were measured and mice were grouped in order to match body weights at ˜46.5 g average per group prior to study. Following the acute dosing trial, mice were injected with vehicle or drug 1× daily between noon and 2 pm for 14 days (BC1618-L (low dose)=8 mg/kg/d, BC1618-H (high dose)=40 mg/kg/d). Body weight was recorded daily (FIGS. 12-15). FIG. 12 and FIG. 13 show body weight in grams and FIG. 14 and FIG. 15 show body weight as a percentage of body weight on day 0 (DO).
FIGS. 16-19 show the change (A) in body weight (BW) from day 0 to day 14 expressed as change in grams (FIG. 16 and FIG. 17) or as percent change from day 0 (FIG. 18 and FIG. 19).
Body composition was measured at DO in the body weight matched animals and again at day 14 (D14). Data in FIGS. 20-23 represent the change in fat mass from DO to D14 expressed as grams (FIG. 20 and FIG. 21) or as percent change (FIG. 22 and FIG. 23).
Data in FIGS. 24-27 represent the change in lean mass from DO to D14 expressed as grams (FIG. 24 and FIG. 25) and as percent change (FIG. 26 and FIG. 27). Overall there appears to be a modest effect of vehicle and drug to reduce lean mass over 14 days, but no differences between groups. Changes in BW over 14 days therefore reflect changes in fat mass and not lean mass.

[3] = tested on: PBMC cells; assay: Cytokine array of LPS-treated PBMC cells; format: cell-based, human; conditions: 5 μM 18 h, then LPS 100 ng/ml 4 h
Protocol: FIG. 10. (A) 50K PBMC cells were cultured in 96 well plates before being exposed to Compound 23 for 18 h. Cells were then treated with LPS (10 ng/ml) for additional 4 h. Media were then collected and TNF and IL-1b concentration were determined by ELISA. (B) PBMC cells (1 mL at 1.0×10^6/ml) were treated with Compound 23 (5 μM) for 18 h. Cells were then treated with 100 ng/ml LPS for 4 h. Cytokine release was monitored by the human cytokine array (R&D systems). The results from a cytokine array dot blot were quantitated and graphed.
Compound 23 was tested in in vitro inflammatory assays. 50K PBMC cells were cultured in 96 well plates before being exposed to Compound 23 for 18 h. Cells were then treated with LPS (10 ng/ml) for additional 4 h. Media were then collected and assayed for TNF and IL-1b. […] Cytokine arrays were used to profile which cyotokine/chemokines were regulated by Compound 23.

[4] = tested on: High-fat diet fed C57BL6J mice; assay: Acute oral dosing study in high-fat diet fed mice; format: in vivo

For `OC(COc1ccc(F)cc1)CN(Cc1ccccc1)Cc1ccccc1` (centres unmarked) [Compound 12], which “mRNA levels of both AMPKα1 and AMPKα2” value [1] is on record?
Its value is “effectively decreased”.

Which results are given for `OC(COc1ccc(C(F)(F)F)cc1)CN(Cc1ccccc1)Cc1ccccc1` (centres unmarked) [Compound 23]?
body weight loss (daily body weight) [2]: effect of AICAR and BC1618 on body weight loss; change in body weight from day 0 to day 14 [2]: an effect due to AICAR or BC1618; change in fat mass from D0 to D14 [2]: apparent additive effect; cytokines/chemokines regulated (cytokine array) [3]: decreases CD40, GMCSF, IL-1b, IL-1ra, IL-2, IL-12, IL-13, ITAC and TNF; glucose tolerance (intraperitoneal glucose tolerance test) ([4]; 1 g/kg body weight glucose, data not shown): no difference in glucose tolerance; body weight at the time of study ([4]; two oral doses (AICAR 200 mg/kg, BC1618 20 mg/kg)): no differences in body weight; reduction of fasting plasma glucose compared to vehicle ([4]; two oral doses (AICAR 200 mg/kg, BC1618 20 mg/kg), 2 h after second dose, P=0.08): 25%

From patent US11673853B2, “Small molecule AMPK activators” (University of Pittsburgh—Of the Commonwealth System of …, priority 2016, dated 2023)
